{
  "source": "patent US20240197716A1",
  "about": "“TREATMENTS FOR CUSHING'S SYNDROME THAT DO NOT SIGNIFICANTLY AFFECT CARDIAC RHYTHMS” (Corcept Therapeutics Incorporated, priority 2022, published 2024)",
  "key": {"[1]": {"test_system": "patients with CS", "experiment": "Phase 2 CS study (NCT02804750), ECG / QTcF", "type": "in vivo, human", "experimental": "A single-arm, open-label phase 2 study (NCT02804750) in patients with CS. 17 patients received low-dose relacorilant (100-200 mg QD) for 12 weeks; 18 patients received high-dose relacorilant (250-400 mg QD) for 16 weeks.\n(§1) In all studies, ECG data were collected and the heart rate-corrected QT interval using Fridericia's formula (QTcF) was calculated. Participants with a family history of or risk factors for torsades de pointes or with a prolonged QT interval at screening were not eligible to participate. Exposure-response analysis of the effect of relacorilant on the heart-rate corrected QT interval (QTc) was conducted using a linear model with an intercept.\n(§2) In a 3-part, single-center, First-in-Human study (NCT03508635, “phase 1 study”), 103 healthy volunteers received single or multiple ascending doses of relacorilant (up to 500 mg QD) for up to 14 days; 24 received placebo. In a randomized, partial double-blind, crossover Thorough QT study (NCT04795479, “TQT study”), the effect of multiple therapeutic (400 mg QD, n=25) and supra-therapeutic (800 mg QD, n=28) doses of relacorilant on cardiac repolarization was studied in healthy volunteers. A single dose of moxifloxacin (400 mg, n=28) was used as a positive control; 29 participants received placebo. In a single-arm, open-label phase 2 study (NCT02804750, “CS study”), 17 patients with CS received low-dose relacorilant (100-200 mg QD) for 12 weeks and 18 patients received high-dose relacorilant (250-400 mg QD) for 16 weeks. In all studies, ECG data were collected, and the heart rate-corrected QT interval using Fridericia's formula (QTcF) was assessed."}, "[2]": {"test_system": "healthy volunteers", "experiment": "First-in-Human SAD/MAD study (NCT03508635), ECG / QTcF", "type": "in vivo", "conditions": "for placebo-corrected predicted change in QTc at Cmax: doses of 50, 150, 250 and 500 mg", "experimental": "A phase 1, 3-part, single-center, First-in-Human study (NCT03508635) included 103 healthy volunteers who received single or multiple ascending doses (SAD/MAD) of relacorilant (up to 500 mg QD) for up to 14 days; 24 received placebo.\nas §1, §2\nECG data were available from 42 and 12 participants randomized to relacorilant or placebo, respectively, during the single ascending dose (SAD) phase, and from 34 and 12 participants randomized to relacorilant or placebo, respectively, during the multiple ascending dose (MAD) phase. Baseline mean (SD) QTcF values were within expectations for a healthy population (range […] (11.7) msec to 403.5 (9.4) msec) and were similar in the respective relacorilant and placebo cohorts during the SAD and MAD study phases (see Table 1) (where the value in parentheses indicates standard deviation)."}, "[3]": {"test_system": "Cushing's syndrome patients", "experiment": "Separate study: relacorilant with another drug known to cause QT prolongation", "type": "in vivo, human", "conditions": "at least 12 patients also receiving fluoroquinoline, imidazole derivative, macrolide or protease inhibitor drug"}, "[4]": {"conditions": "MAD, concentration-QTc linear model, FIG. 2B"}, "[5]": {"conditions": "SAD, concentration-QTc linear model, FIG. 2A"}},
  "data": [
    {"smiles": "Cn1cc(S(=O)(=O)N2CCC3=Cc4c(cnn4-c4ccc(F)cc4)C[C@]3(C(=O)c3cc(C(F)(F)F)ccn3)C2)cn1", "note": "[relacorilant, ((R)-(1-(4-fluorophenyl)-6-((1-methyl-1H-pyrazol-4-yl)sulfonyl)-4,4a,5,6,7,8-hexahydro-1H-pyrazolo[3,4-g]isoquinolin-4a-yl)(4-(trifluoromethyl)pyridine-2-yl)methanone)]", "values": [
      {"measurement": "hypokalemia", "setting": "[1]; CS study", "result": "no instances"},
      {"measurement": "abnormal sinus tachycardia, post-baseline ECG finding", "setting": "[1]; high-dose group", "result": 11.1, "unit": "%"},
      {"measurement": "abnormal sinus tachycardia, post-baseline ECG finding", "setting": "[1]; high-dose group (18 patients)", "result": 2, "unit": "patients"},
      {"measurement": "change in median QTcF", "setting": "[1]; high-dose group, 250 to 400 mg/day, FIG. 6B", "result": "No significant changes"},
      {"measurement": "abnormal sinus tachycardia, post-baseline ECG finding", "setting": "[1]; low-dose group", "result": 17.6, "unit": "%"},
      {"measurement": "abnormal sinus tachycardia, post-baseline ECG finding", "setting": "[1]; low-dose group (17 patients)", "result": 3, "unit": "patients"},
      {"measurement": "change in median QTcF", "setting": "[1]; low-dose group, 100 to 200 mg/day, FIG. 6A", "result": "No significant changes"},
      {"measurement": "MAD equation ΔΔQTcF intercept", "setting": "[2]; [4]", "result": -1.804, "unit": "ms"},
      {"measurement": "MAD equation ΔΔQTcF slope versus relacorilant concentration", "setting": "[2]; [4]", "result": -0.00234, "unit": "ms/ng/mL"},
      {"measurement": "placebo-corrected predicted change in QTc at Cmax", "setting": "[2]; MAD, FIG. 2B", "result": "less than 10 ms"},
      {"measurement": "mean ΔΔQTcF at any time point", "setting": "[2]; SAD and MAD study phases, all doses", "result": "≤ 5", "unit": "ms"},
      {"measurement": "SAD equation ΔΔQTcF intercept", "setting": "[2]; [5]", "result": -0.005, "unit": "ms"},
      {"measurement": "SAD equation ΔΔQTcF slope versus relacorilant concentration", "setting": "[2]; [5]", "result": -0.000588, "unit": "ms/ng/mL"},
      {"measurement": "placebo-corrected predicted change in QTc at Cmax", "setting": "[2]; SAD, FIG. 2A", "result": "less than 5 ms"},
      {"measurement": "Mean placebo-corrected ΔQTcF (ΔΔQTcF) at any time point", "setting": "[2]; any of the dosing groups", "result": "≤ 3", "unit": "ms"},
      {"measurement": "prolonging effect on ΔΔQTcF exceeding the 10-msec threshold", "setting": "[2]; modeled SAD and MAD results, plasma concentrations up to approximately 4000 ng/ml", "result": "excluded"},
      {"measurement": "instances of post-dose QTcF interval>450 ms or QTcF interval increase of >30 ms", "setting": "[2]; up to 500 mg QD", "result": "No instances"},
      {"measurement": "effect on ECG parameters", "setting": "[2]; up to 500 mg daily", "result": "did not have a clinically relevant adverse effect on ECG parameters"},
      {"measurement": "QT prolongation", "setting": "[3]", "result": "no clinically significant QT prolongation"}
    ]}
  ]
}
